According to PubChem BioAssay AID298 (DTP/NCI, 2004):
Where “and” joins values, the source holds several entries; their conditions need not be identical. Equal entries are not always repeated. Records with an inconclusive call do not appear.

Test system: MX-1 breast xenograft, intrarenal, nude mice, tumor weight
Experiment: NCI In Vivo Anticancer Drug Screen. Data for tumor model Human Mammary Carcinoma MX-1 Xenograft (intrarenal inoculation) in NU/NU BALB/C (nude) mice
Conditions: endpoint: mean tumor weight change, higher = larger tumour
Procedure, shortened: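 Antitumor activity is expressed as a T/C ratio. The treated group's tumor size or survival is compared against the vehicle-treated control group in mice bearing transplanted tumors.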

[1] = dose: 150.0 mg/kg/injection, schedule: Q04DX003 (ip), vehicle: Klucel (hydroxypropylcellulose) (HPC)
[2] = dose: 300.0 mg/kg/injection, schedule: Q04DX003 (ip), vehicle: Klucel (hydroxypropylcellulose) (HPC)

For `COC(=O)[C@@]12OC[C@]34[C@H]([C@@H](O)[C@@H]1O)[C@@]1(C)CC(=O)C(O)=C(C)[C@@H]1C[C@H]3OC(=O)[C@H](OC(=O)/C=C(\C)C(C)C)[C@@H]24`, the T/C (dose: 1.0 mg/kg/injection, schedule: Q01DX010 (sc), vehicle: saline + alcohol) was 51 % of control.
In the case of `N=C(N)c1nn(C2OC(CO)C(O)C2O)c2nc[nH]c(=O)c12` (stereo not given), the T/C (dose: 12.5 mg/kg/injection, schedule: Q04DX003 (ip), vehicle: Klucel + Tween-80) is reported as 92 % of control, the T/C (dose: 25.0 mg/kg/injection, schedule: Q04DX003 (ip), vehicle: Klucel + Tween-80) is reported as 42 % of control and the T/C (dose: 25.0 mg/kg/injection, schedule: Q04DX003 (ip), vehicle: distilled water + Tween-80 + alcohol) is reported as 95 % of control. For the same molecule, the T/C (dose: 50.0 mg/kg/injection, schedule: Q04DX003 (ip), vehicle: distilled water + Tween-80 + alcohol) was 83 % of control, the T/C (dose: 75.0 mg/kg/injection, schedule: Q04DX003 (ip), vehicle: Klucel + Tween-80) was 36 % of control and the T/C (dose: 100.0 mg/kg/injection, schedule: Q04DX003 (ip), vehicle: distilled water + Tween-80 + alcohol) was 4 % of control. For the same molecule, the T/C (dose: 125.0 mg/kg/injection, schedule: Q04DX003 (ip), vehicle: Klucel + Tween-80) was 9 % of control.
In the case of `C/C(=N\NC(=S)N1CCN(c2ccccn2)CC1)c1ccccn1`, the T/C (dose: 75.0 mg/kg/injection, schedule: Q04DX003 (sc), vehicle: water) is reported as 104 % of control.
With `CNc1nc(N(C)C)nc(N(C)C)n1` the T/C (dose: 30.0 mg/kg/injection, schedule: Q01DX010 (sc), vehicle: water) was 1 % of control, the T/C (dose: 60.0 mg/kg/injection, schedule: Q01DX010 (sc), vehicle: water) was -31 % of control and the T/C (dose: 120.0 mg/kg/injection, schedule: Q01DX010 (sc), vehicle: water) was -94 % of control.
`Cc1ccc2c(c1)C1(C)OC(C=CC1=O)O2` (stereo not given) was tested, and the T/C [1] was 94 % of control.
With `COc1ccc(N=C(C)C2C(=O)c3ccccc3C2=O)cc1` the T/C (dose: 150.0 mg/kg/injection, schedule: Q04DX003 (ip), vehicle: DMSO) was 93 % of control, the T/C (dose: 300.0 mg/kg/injection, schedule: Q04DX003 (ip), vehicle: DMSO) was 98 % of control and the T/C (dose: 600.0 mg/kg/injection, schedule: Q04DX003 (ip), vehicle: DMSO) was 110 % of control. For the same molecule, the T/C (dose: 1200.0 mg/kg/injection, schedule: Q04DX003 (ip), vehicle: DMSO) was 105 % of control.
For `CCOC(=O)/C=C/C(=O)N1CCN(C(=O)/C=C/C(=O)OCC)C(C)C1` (stereo not given), the T/C [1] was 103 % of control, the T/C [2] was 83 % of control and the T/C (dose: 600.0 mg/kg/injection, schedule: Q04DX003 (ip), vehicle: Klucel (hydroxypropylcellulose) (HPC)) was 77 % of control.
For `CN(C)CCCOc1nc2c(c(=O)n(C)c(=O)n2C)n1C` (tested in a mixture with another compound), the T/C (dose: 37.5 mg/kg/injection, schedule: Q04DX003 (ip), vehicle: Klucel (hydroxypropylcellulose) (HPC)) was 75 % of control, the T/C (dose: 75.0 mg/kg/injection, schedule: Q04DX003 (ip), vehicle: Klucel (hydroxypropylcellulose) (HPC)) was 63 % of control and 65 % of control and the T/C [1] was 58 % of control and 62 % of control. The T/C [2] was 19 % of control and 20 % of control.
`NC1(C(=O)O)CCCC1` was tested, and the T/C (dose: 25.0 mg/kg/injection, schedule: Q01DX010 (sc), vehicle: saline) was 73 % of control and the T/C (dose: 50.0 mg/kg/injection, schedule: Q01DX010 (sc), vehicle: saline) was 31 % of control.
In the case of `NC(CNC(=O)CBr)C(=O)O` (stereo not given), the T/C (dose: 37.5 mg/kg/injection, schedule: Q04DX003 (sc), vehicle: water) is reported as 82 % of control and the T/C (dose: 150.0 mg/kg/injection, schedule: Q04DX003 (sc), vehicle: water) is reported as 54 % of control.
For `Cn1cc(NC(=O)c2cc(NC(=O)c3cc(NC=O)cn3C)cn2C)cc1C(=O)NCCC(=N)N`, the T/C (dose: 50.0 mg/kg/injection, schedule: Q04DX003 (ip), vehicle: water) was 82 % of control, the T/C (dose: 100.0 mg/kg/injection, schedule: Q04DX003 (ip), vehicle: water) was 83 % of control and the T/C (dose: 200.0 mg/kg/injection, schedule: Q04DX003 (ip), vehicle: water) was 51 % of control.
`COc1ccc(N=N/N=c2\sc3cc(OC)ccc3n2C)cc1` was tested, and the T/C (dose: 30.0 mg/kg/injection, schedule: Q04DX003 (ip), vehicle: saline with Tween-80) was 68 % of control, the T/C (dose: 60.0 mg/kg/injection, schedule: Q04DX003 (ip), vehicle: saline with Tween-80) was 87 % of control and the T/C (dose: 120.0 mg/kg/injection, schedule: Q04DX003 (ip), vehicle: saline with Tween-80) was 65 % of control. For the same molecule, the T/C (dose: 240.0 mg/kg/injection, schedule: Q04DX003 (ip), vehicle: saline with Tween-80) was 62 % of control.
